Data published in patent publication US20240025912A1 (Merck Sharp & Dohme LLC, priority 2022, published 2024).

These molecules were tested against GST-RIPK1 (recombinant GST-RIPK1 kinase domain (residues 1-327)) (Homo sapiens (Human), UniProt Q13546) (assay: RIPK1-ADP-Glo Enzymatic Assay). Conditions: 25 nM GST-RIPK1, 300 μM ATP, 3 μM dephosphorylated-MBP, 30 min pre-incubation, 150 min reaction.
GST-RIPK1 (recombinant GST-RIPK1 kinase domain (residues 1-327)), sequence (Q13546 1-327): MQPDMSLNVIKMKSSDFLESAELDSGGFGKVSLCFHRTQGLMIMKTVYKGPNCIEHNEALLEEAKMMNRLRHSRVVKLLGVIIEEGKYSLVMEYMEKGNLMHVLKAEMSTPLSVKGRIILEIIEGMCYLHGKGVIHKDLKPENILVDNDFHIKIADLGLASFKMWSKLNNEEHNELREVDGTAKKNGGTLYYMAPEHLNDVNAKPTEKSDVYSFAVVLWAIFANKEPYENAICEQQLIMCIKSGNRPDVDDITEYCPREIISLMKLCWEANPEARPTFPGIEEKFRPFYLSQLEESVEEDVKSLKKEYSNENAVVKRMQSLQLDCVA
Format: biochemical
In short: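 GST-RIPK1 kinase domain (1-327, Sf21-expressed), 25 nM final, pre-incubated 30 min with compound (1% DMSO), then reacted 150 min with 300 μM ATP and 3 μM dephosphorylated MBP in HEPES pH 7.3/MgCl2 buffer. ADP measured by ADP-Glo luminescence; EC50 from 10-point 1:3 titrations (top 100000 nM), four-parameter fit.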
For `O=c1n(C23CC(F)(C2)C3)nc2n1[C@H](c1cc(F)cc(F)c1)CC2` [Compound 1-2, (5S)-5-(3,5-difluorophenyl)-2-(3-fluorobicyclo[1.1.1]pentan-1-yl)-2,5,6,7-tetrahydro-3H-pyrrolo[2,1-c][1,2,4]triazol-3-one], the EC50 was 22.8 nM.
Molecule `O=c1n(C23CC(F)(C2)C3)nc2n1[C@H](c1ccc(C(F)F)cc1)CC2` [Compound 4-10, (S)-5-(4-(difluoromethyl)phenyl)-2-(3-fluorobicyclo[1.1.1]pentan-1-yl)-2,5,6,7-tetrahydro-3H-pyrrolo[2,1-c][1,2,4]triazol-3-one] has an EC50 of 62.9 nM.
In the case of `O=c1n(C23CC(F)(C2)C3)nc2n1[C@H](c1ccc(Cl)cc1)CC2` [Compound 1-45, (S)-5-(4-chlorophenyl)-2-(3-fluorobicyclo[1.1.1]pentan-1-yl)-2,5,6,7-tetrahydro-3H-pyrrolo[2,1-c][1,2,4]triazol-3-one], the EC50 is reported as 37.7 nM.
For `O=c1n(C23CC(F)(C2)C3)nc2n1[C@H](c1ccccc1F)CC2` [Compound 1-9, (5S)-2-(3-fluorobicyclo[1.1.1]pentan-1-yl)-5-(2-fluorophenyl)-2,5,6,7-tetrahydro-3H-pyrrolo[2,1-c][1,2,4]triazol-3-one], the EC50 was 26.1 nM.
Work on `O=c1n(C23CC(C(F)F)(C2)C3)nc2n1[C@H](c1cc(F)cc(F)c1)CC2` [Compound 1-28, (5S)-2-[3-(difluoromethyl)bicyclo[1.1.1]pentan-1-yl]-5-(3,5-difluorophenyl)-2,5,6,7-tetrahydro-3H-pyrrolo[2,1-c][1,2,4]triazol-3-one] yielded an EC50 of 25.9 nM.
Molecule `N#CC12CC(n3nc4n(c3=O)[C@H](c3ccccc3)CC4)(C1)C2(F)F` [Compound 3-3, 2,2-difluoro-3-[(5S)-3-oxo-5-phenyl-6,7-dihydro-3H-pyrrolo[2,1-c][1,2,4]triazol-2(5H)-yl]bicyclo[1.1.1]pentane-1-carbonitrile] has an EC50 of 45 nM.
Molecule `N#CC12CC(n3nc4n(c3=O)[C@H](c3cnccn3)CC4)(C1)C2` [Compound 4-8, (S)-3-(3-oxo-5-(pyrazin-2-yl)-6,7-dihydro-3H-pyrrolo[2,1-c][1,2,4]triazol-2(5H)-yl)bicyclo[1.1.1]pentane-1-carbonitrile] has an EC50 of 165 nM.
Work on `N#CC12CC(n3nc4n(c3=O)C(c3cnccn3)CC4)(C1)C2` (racemic) [Compound 4-1, (±)-3-(3-oxo-5-(pyrazin-2-yl)-6,7-dihydro-3H-pyrrolo[2,1-c][1,2,4]triazol-2(5H)-yl)bicyclo[1.1.1]pentane-1-carbonitrile] yielded an EC50 of 385 nM.
For `N#CC12CC(n3nc4n(c3=O)[C@H](c3cc(F)cc(F)c3)CCC4)(C1)C2` [Compound 1-53, (S)-3-(5-(3,5-difluorophenyl)-3-oxo-5,6,7,8-tetrahydro-[1,2,4]triazolo[4,3-a]pyridin-2(3H)-yl)bicyclo[1.1.1]pentane-1-carbonitrile], the EC50 was 109 nM.
For `O=c1n(C23CC(Cl)(C2)C3)nc2n1[C@H](c1cnccn1)CC2` [Compound 1-59, (S)-2-(3-chlorobicyclo[1.1.1]pentan-1-yl)-5-(pyrazin-2-yl)-2,5,6,7-tetrahydro-3H-pyrrolo[2,1-c][1,2,4]triazol-3-one], the EC50 was 53.9 nM.
`O=c1n(C23CC(F)(C2)C3)nc2n1[C@H](c1ccc(F)cc1)CC2` [Compound 1-37, (5S)-2-(3-fluorobicyclo[1.1.1]pentan-1-yl)-5-(4-fluorophenyl)-2,5,6,7-tetrahydro-3H-pyrrolo[2,1-c][1,2,4]triazol-3-one] gave an EC50 of 65.6 nM.
For `O=c1n(C23CC(c4ccccc4)(C2)C3)nc2n1[C@H](c1cncc(F)c1)CC2` [Compound 1-13, (5S)-5-(5-fluoropyridin-3-yl)-2-(3-phenylbicyclo[1.1.1]pentan-1-yl)-2,5,6,7-tetrahydro-3H-pyrrolo[2,1-c][1,2,4]triazol-3-one], the EC50 was 514 nM.
In the case of `N#CC12CC(n3nc4n(c3=O)[C@H](c3ccc(F)cc3)CC4)(C1)C2` [Compound 1-38, 3-[(5S)-5-(4-fluorophenyl)-3-oxo-6,7-dihydro-3H-pyrrolo[2,1-c][1,2,4]triazol-2(5H)-yl]bicyclo[1.1.1]pentane-1-carbonitrile], the EC50 is reported as 160 nM.
In the case of `O=c1n(C23CC(C(F)F)(C2)C3)nc2n1[C@H](c1cncc(F)c1)CC2` [Compound 1-57, (S)-2-(3-(difluoromethyl)bicyclo[1.1.1]pentan-1-yl)-5-(5-fluoropyridin-3-yl)-2,5,6,7-tetrahydro-3H-pyrrolo[2,1-c][1,2,4]triazol-3-one], the EC50 is reported as 369 nM.
In the case of `O=c1n(C23CC(Cl)(C2)C3)nc2n1[C@H](c1cncc(F)c1)CC2` [Compound 1-15, (5S)-2-(3-chlorobicyclo[1.1.1]pentan-1-yl)-5-(5-fluoropyridin-3-yl)-2,5,6,7-tetrahydro-3H-pyrrolo[2,1-c][1,2,4]triazol-3-one], the EC50 is reported as 111 nM.
`N#CC12CC(n3nc4n(c3=O)[C@H](c3ccccc3)CC4)(C1)C2` [Compound 1-17, 3-[(5S)-3-oxo-5-phenyl-6,7-dihydro-3H-pyrrolo[2,1-c][1,2,4]triazol-2(5H)-yl]bicyclo[1.1.1]pentane-1-carbonitrile] gave an EC50 of 36.9 nM.
With `Cc1ccccc1[C@@H]1CCc2nn(C34CC(F)(C3)C4)c(=O)n21` [Compound 4-15, (S)-2-(3-fluorobicyclo[1.1.1]pentan-1-yl)-5-(o-tolyl)-2,5,6,7-tetrahydro-3H-pyrrolo[2,1-c][1,2,4]triazol-3-one] the EC50 was 341 nM.
Work on `N#CC12CCC(n3nc4n(c3=O)[C@H](c3ccccc3)CC4)(CC1)C2` [Compound 1-30, 4-[(5S)-3-oxo-5-phenyl-6,7-dihydro-3H-pyrrolo[2,1-c][1,2,4]triazol-2(5H)-yl]bicyclo[2.2.1]heptane-1-carbonitrile] yielded an EC50 of 87.4 nM.
With `O=c1n(C23CC(F)(C2)C3)nc2n1[C@H](c1ccc(Cl)c(F)c1)CC2` [Compound 1-75, (S)-5-(4-chloro-3-fluorophenyl)-2-(3-fluorobicyclo[1.1.1]pentan-1-yl)-2,5,6,7-tetrahydro-3H-pyrrolo[2,1-c][1,2,4]triazol-3-one] the EC50 was 17.1 nM.
Molecule `O=c1n(C23CC(C(F)F)(C2)C3)nc2n1[C@H](c1cccc(F)c1)CC2` [Compound 1-33, (5S)-2-[3-(difluoromethyl)bicyclo[1.1.1]pentan-1-yl]-5-(3-fluorophenyl)-2,5,6,7-tetrahydro-3H-pyrrolo[2,1-c][1,2,4]triazol-3-one] has an EC50 of 30.4 nM.
`O=c1n(C23CC(F)(C2)C3)nc2n1[C@H](c1cnccn1)CC2` [Compound 4-12, (S)-2-(3-fluorobicyclo[1.1.1]pentan-1-yl)-5-(pyrazin-2-yl)-2,5,6,7-tetrahydro-3H-pyrrolo[2,1-c][1,2,4]triazol-3-one] gave an EC50 of 84 nM.
For `O=c1n(C23CC(F)(C2)C3)nc2n1[C@H](c1cccc(Cl)c1)CC2` [Compound 1-63, (S)-5-(3-chlorophenyl)-2-(3-fluorobicyclo[1.1.1]pentan-1-yl)-2,5,6,7-tetrahydro-3H-pyrrolo[2,1-c][1,2,4]triazol-3-one], the EC50 was 68.1 nM.
Molecule `N#Cc1cccc(C2CCc3nn(C45CC(F)(C4)C5)c(=O)n32)c1` (racemic) [Compound 4-3, (±)-3-[2-(3-fluorobicyclo[1.1.1]pentan-1-yl)-3-oxo-2,5,6,7-tetrahydro-3H-pyrrolo[2,1-c][1,2,4]triazol-5-yl]benzonitrile] has an EC50 of 426 nM.
`N#CC12CC(n3nc4n(c3=O)[C@H](c3cccc(Cl)c3)CC4)(C1)C2` [Compound 1-62, (S)-3-(5-(3-chlorophenyl)-3-oxo-6,7-dihydro-3H-pyrrolo[2,1-c][1,2,4]triazol-2(5H)-yl)bicyclo[1.1.1]pentane-1-carbonitrile] gave an EC50 of 98.6 nM.
Work on `COC(=O)C12CC(n3nc4n(c3=O)[C@H](c3ccccc3)CC4)(C1)C2` [Compound 1-19, methyl 3-[(5S)-3-oxo-5-phenyl-6,7-dihydro-3H-pyrrolo[2,1-c][1,2,4]triazol-2(5H)-yl]bicyclo[1.1.1]pentane-1-carboxylate] yielded an EC50 of 289 nM.
`N#CC12CC(n3nc4n(c3=O)[C@H](c3cccc(C(F)(F)F)c3)CC4)(C1)C2` [Compound 1-49, (S)-3-(3-oxo-5-(3-(trifluoromethyl)phenyl)-6,7-dihydro-3H-pyrrolo[2,1-c][1,2,4]triazol-2(5H)-yl)bicyclo[1.1.1]pentane-1-carbonitrile] showed an EC50 of 874 nM.
Molecule `N#CC12CC(n3nc4n(c3=O)[C@H](c3ccccc3F)CC4)(C1)C2` [Compound 1-23, 3-[(5S)-5-(2-fluorophenyl)-3-oxo-6,7-dihydro-3H-pyrrolo[2,1-c][1,2,4]triazol-2(5H)-yl]bicyclo[1.1.1]pentane-1-carbonitrile] has an EC50 of 31.8 nM.
For `O=c1n(C23CCC(F)(CC2)C3)nc2n1[C@H](c1cc(F)cc(F)c1)CC2` [Compound 1-3, (5S)-5-(3,5-difluorophenyl)-2-(4-fluorobicyclo[2.2.1]heptan-1-yl)-2,5,6,7-tetrahydro-3H-pyrrolo[2,1-c][1,2,4]triazol-3-one], the EC50 was 34.8 nM.
`Cc1cncc([C@@H]2CCc3nn(C45CC(Cl)(C4)C5)c(=O)n32)n1` [Compound 1-68] showed an EC50 of 59.5 nM.
`O=c1n(C23CC(F)(C2)C3)nc2n1[C@H](c1cnc(C(F)(F)F)cn1)CC2` [Compound 4-16, (S)-2-(3-fluorobicyclo[1.1.1]pentan-1-yl)-5-(5-(trifluoromethyl)pyrazin-2-yl)-2,5,6,7-tetrahydro-3H-pyrrolo[2,1-c][1,2,4]triazol-3-one] gave an EC50 of 496 nM.
`COC(=O)C12CC(n3nc4n(c3=O)[C@H](c3cc(F)cc(F)c3)CC4)(C1)C2` [Compound 1-18, methyl 3-[(5S)-5-(3,5-difluorophenyl)-3-oxo-6,7-dihydro-3H-pyrrolo[2,1-c][1,2,4]triazol-2(5H)-yl]bicyclo[1.1.1]pentane-1-carboxylate] was tested, and the EC50 was 114 nM.
In the case of `N#CC12CC(n3nc4n(c3=O)[C@H](c3ccccc3F)CC4F)(C1)C2` (single isomer, unassigned) [Compound 6-9, 3-[(5S)-7-(S or R)-fluoro-5-(2-fluorophenyl)-3-oxo-6,7-dihydro-3H-pyrrolo[2,1-c][1,2,4]triazol-2(5H)-yl]bicyclo[1.1.1]pentane-1-carbonitrile], the EC50 is reported as 68.9 nM.
